# Laboratory results from patent publication US11746111B2, “Siderophore conjugated pyrazolidinones, and analogues thereof” (YALE UNIVERSITY, priority 2018, dated 2023).
# Like-named read-outs stand apart in the source and are kept apart here.
# Tests used:
# Pseudomonas aeruginosa = assay: MIC versus Pseudomonas aeruginosa strains incl. Class B metallo beta lactamases (Table 3); format: cell-based
# Source text: (§1) Tables 2 and 3 show MIC values of compound 26 (YU253434) and 42 YU253911 versus E. coli and P. Aeruginosa strains containing Class B metallo beta lactamases VIM and NDM compared with Meropenem as a standard.
# E. coli = assay: MIC versus E. coli strains incl. Class B metallo beta lactamases (Table 2); format: cell-based; settings: Escherichia coli
# Source text: as §1
# [1] = test system: E. coli clinical isolates; assay: Microdilution broth MIC, E. coli clinical isolates (Table 1); format: cell-based; settings: Escherichia coli, read-out: MIC
# Procedure: (§2) Microdilution Broth Minimum Inhibitory Concentrations (MICs)
# (§3) MICs were performed in triplicate in cation adjusted Mueller-Hinton (MH) broth 30 according to CLSI guidelines. Firstly, overnight cultures of E. coli and K. pneumoniae clinical isolates were inoculated into 5 ml MH broth to OD600=0.1 and grown to OD600=0.224 (approximately 1-2×10^8 CFU/ml). These cultures were diluted (3 μl+4997 μl MH) and 100 μl inoculated into each well of a 96-well plate containing 100 μl of serial dilutions of compound 26 (YU253434), ampicillin, ceftazidime, or imipenem. The plates were placed in a 37° C. incubator for 18-20 hours and wells checked for growth.
# [2] = test system: K. pneumoniae clinical isolates; assay: Microdilution broth MIC, K. pneumoniae clinical isolates (Table 1); format: cell-based; settings: Klebsiella pneumoniae
# Procedure: as §2, §3
# [3] = target: Pseudomonas aeruginosa penicillin binding protein 3 (PBP3) (Pseudomonas aeruginosa, UniProt G3XD46); assay: Inhibition of penicillin binding protein 3 (Bocillin based assay); settings: Pseudomonas aeruginosa PBP3 (FIG. 5)
# Source text: FIG. 5 is a graph showing compound 26 inhibiting Pseudomonas aeruginosa penicillin binding protein 3 (PBP3).
# To assess the affinity of the inhibitors for PBP3 and PBP1a and PBP1b, a Bocillin based assay using PA01 membranes as well as purified proteins is used. Delineation of remarkably active compounds occurs by establishing the MIC90 against Ec, Pa, Ab and Kp as well as static time kill measurement. When siderophore linked pyrazolidinone agents show remarkable activity (i.e. activity equal to or greater than current clinical agents Meropenem or Aztreonam) in these latter secondary assays, they are tested in vivo in a mouse septicemia efficacy model after protein binding measurement and will show potent in vivo activity.
# [4] = ATCC27853, P. aeruginosa isolate ATCC 27853, CLSI control
# [5] = P. aeruginosa isolate AR-229, OXA-50
# [6] = P. aeruginosa isolate AR-230, VIM-2
# [7] = P. aeruginosa isolate AR-231, KPC-5
# [8] = P. aeruginosa isolate AR-232, OXA-50
# [9] = P. aeruginosa isolate AR-245, VIM
# [10] = P. aeruginosa isolate AR-249, VIM
# [11] = P. aeruginosa isolate AR-254, VIM
# [12] = P. aeruginosa isolate AR-270, OXA-50
# [13] = P. aeruginosa isolate J4242, UNC-D
# [14] = ATCC25822, E. coli isolate ATCC 25822, CLSI costrol
# [15] = E. coli isolate AK-114, KPC-3, TEM-18
# [16] = E. coli isolate AR-11, CTX-M-15, OxA-1
# [17] = E. coli isolate J4245, Michigan
# Sequence of Pseudomonas aeruginosa penicillin binding protein 3 (PBP3) (G3XD46 whole entry): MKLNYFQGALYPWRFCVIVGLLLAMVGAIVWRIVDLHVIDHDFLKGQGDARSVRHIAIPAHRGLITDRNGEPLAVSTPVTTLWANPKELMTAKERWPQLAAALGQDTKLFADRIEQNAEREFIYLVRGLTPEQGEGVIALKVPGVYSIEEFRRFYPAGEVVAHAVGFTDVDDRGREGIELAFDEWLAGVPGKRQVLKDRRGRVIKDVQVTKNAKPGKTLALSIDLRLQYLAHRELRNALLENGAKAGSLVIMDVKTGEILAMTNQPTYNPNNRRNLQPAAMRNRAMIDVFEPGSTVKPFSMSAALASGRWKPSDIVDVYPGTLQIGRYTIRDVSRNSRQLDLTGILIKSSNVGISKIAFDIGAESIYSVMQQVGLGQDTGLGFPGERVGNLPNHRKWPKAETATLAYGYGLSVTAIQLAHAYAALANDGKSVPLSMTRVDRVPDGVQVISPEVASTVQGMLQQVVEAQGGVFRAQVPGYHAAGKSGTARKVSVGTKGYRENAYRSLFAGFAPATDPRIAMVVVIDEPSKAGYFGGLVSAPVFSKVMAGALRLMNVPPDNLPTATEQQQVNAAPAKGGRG
smiles,measurement,setting,value
C[C@@H](O)[C@H]1C(=O)N2C(C(=O)O)=C(S[C@@H]3CN[C@H](C(=O)N(C)C)C3)[C@H](C)[C@H]12 [Meropenem],MIC,Pseudomonas aeruginosa; [4],1 µg/mL
same,MIC,Pseudomonas aeruginosa; [5],64 µg/mL
same,MIC,Pseudomonas aeruginosa; [6],> 64 µg/mL
same,MIC,Pseudomonas aeruginosa; [7],> 64 µg/mL
same,MIC,Pseudomonas aeruginosa; [8],8 µg/mL
same,MIC,Pseudomonas aeruginosa; [9],32 µg/mL
same,MIC,Pseudomonas aeruginosa; [10],> 64 µg/mL
same,MIC,Pseudomonas aeruginosa; P. aeruginosa isolate AR-252,64 µg/mL
same,MIC,Pseudomonas aeruginosa; [11],> 64 µg/mL
same,MIC,Pseudomonas aeruginosa; [12],4 µg/mL
same,MIC,Pseudomonas aeruginosa; [13],16 µg/mL
same,MIC,E. coli; [14],≤ 0.125 µg/mL
same,MIC,"E. coli; E. coli isolate AA-118, NDM",> 64 µg/mL
same,MIC,"E. coli; E. coli isolate AA-119, NDM",64 µg/mL
same,MIC,"E. coli; E. coli isolate AA-128, NDM",64 µg/mL
same,MIC,E. coli; [15],4 µg/mL
same,MIC,"E. coli; E. coli isolate AR-1, KPC-3",4 µg/mL
same,MIC,E. coli; [16],≤ 0.125 µg/mL
same,MIC,"E. coli; E. coli isolate AR-137, NDM-6",> 64 µg/mL
same,MIC,"E. coli; E. coli isolate AR-145, NDM",> 64 µg/mL
same,MIC,"E. coli; E. coli isolate J4244, MN",≤ 0.125 µg/mL
same,MIC,E. coli; [17],≤ 0.125 µg/mL
"CC(C)(O/N=C(\C(=O)N[C@H]1CN2CC(C(=O)NCCN3C(=O)c4cc(O)c(O)cc4C3=O)=C(C(=O)O)N2C1=O)c1nc(N)sc1Cl)C(=O)O [Compound 42, (S,Z)-6-(2-(2-amino-5-chlorothiazol-4-yl)-2-(((2-carboxypropan-2-yl)oxy)imino)acetamido)-2-((2-(5,6-dihydroxy-1,3-dioxoisoindolin-2-yl)ethyl)carbamoyl)-5-oxo-6,7-dihydro-1H,5H-pyrazolo[1,2-a]pyrazole-3-carboxylic acid]",MIC,Pseudomonas aeruginosa; [4],0.5 µg/mL
same,MIC,Pseudomonas aeruginosa; [5],0.5 µg/mL
same,MIC,Pseudomonas aeruginosa; [6],1 µg/mL
same,MIC,Pseudomonas aeruginosa; [7],1 µg/mL
same,MIC,Pseudomonas aeruginosa; [8],0.5 µg/mL
same,MIC,Pseudomonas aeruginosa; [9],0.5 µg/mL
same,MIC,Pseudomonas aeruginosa; [10],1 µg/mL
same,MIC,Pseudomonas aeruginosa; P. aeruginosa isolate AR-252,1 µg/mL
same,MIC,Pseudomonas aeruginosa; [11],2 µg/mL
same,MIC,Pseudomonas aeruginosa; [12],0.25 µg/mL
same,MIC,Pseudomonas aeruginosa; [13],0.5 µg/mL
same,MIC,E. coli; [14],> 64 µg/mL
same,MIC,"E. coli; E. coli isolate AA-118, NDM",> 64 µg/mL
same,MIC,"E. coli; E. coli isolate AA-119, NDM",> 64 µg/mL
same,MIC,"E. coli; E. coli isolate AA-128, NDM",> 64 µg/mL
same,MIC,E. coli; [15],2 µg/mL
same,MIC,"E. coli; E. coli isolate AR-1, KPC-3",> 64 µg/mL
same,MIC,E. coli; [16],4 µg/mL
same,MIC,"E. coli; E. coli isolate AR-137, NDM-6",> 64 µg/mL
same,MIC,"E. coli; E. coli isolate AR-145, NDM",> 64 µg/mL
same,MIC,"E. coli; E. coli isolate J4244, MN",> 64 µg/mL
same,MIC,E. coli; [17],> 64 µg/mL
"CC(C)(O/N=C(\C(=O)N[C@H]1CN2CC(C(=O)NCCN3C(=O)c4cc(O)c(O)cc4C3=O)=C(C(=O)O)N2C1=O)c1csc(N)n1)C(=O)O [Compound 26, (S,Z)-6-(2-(2-aminothiazol-4-yl)-2-(((2-carboxypropan-2-yl)oxy)imino)acetamido)-2-((2-(5,6-dihydroxy-1,3-dioxoisoindolin-2-yl)ethyl)carbamoyl)-5-oxo-6,7-dihydro-1H,5H-pyrazolo[1,2-a]pyrazole-3-carboxylic acid]",MIC,"[1]; BAA202, E. coli BAA-202, SHV-1",4 µg/mL
same,MIC,"[1]; E. coli 35218, TEM-1",0.125 µg/mL
same,MIC,"[1]; E. coli LC4, TEM, SHV-12",16 µg/mL
same,MIC,"[1]; E. coli LC12, CTX-M-1 grp(15)",> 128 µg/mL
same,MIC,"[1]; E. coli LC33, CTX-M-9 group",1 µg/mL
same,MIC,"[1]; E. coli LC38, CTX-M-1 grp(15), PB AmpC (ACT/MIR)",0.25 µg/mL
same,MIC,"[1]; E. coli LC41, TEM (238S), PB AmpC (ACT/MIR), CTX-M-1 grp(15)",16 µg/mL
same,MIC,"[1]; E. coli LC77, TEM, KPC",0.5 µg/mL
same,MIC,"[1]; E. coli LC81, SHV (238S + 240K)",16 µg/mL
same,MIC,"[1]; E. coli LC98, CMY (group II)",4 µg/mL
same,MIC,"[1]; E. coli LC109, CTX-M-9 group, CMY (group II)",0.25 µg/mL
same,MIC,"[1]; E. coli LC111, TEM (164S)",1 µg/mL
same,MIC,"[1]; E. coli LC136, SHV (WT + 238S)",0.125 µg/mL
same,MIC,"[1]; E. coli Rush24, CMY (group II)",8 µg/mL
same,MIC,Pseudomonas aeruginosa; [4],0.25 µg/mL
same,MIC,Pseudomonas aeruginosa; [5],0.25 µg/mL
same,MIC,Pseudomonas aeruginosa; [6],1 µg/mL
same,MIC,Pseudomonas aeruginosa; [7],0.5 µg/mL
same,MIC,Pseudomonas aeruginosa; [8],0.5 µg/mL
same,MIC,Pseudomonas aeruginosa; [9],0.5 µg/mL
same,MIC,Pseudomonas aeruginosa; [10],1 µg/mL
same,MIC,Pseudomonas aeruginosa; P. aeruginosa isolate AR-252,1 µg/mL
same,MIC,Pseudomonas aeruginosa; [11],2 µg/mL
same,MIC,Pseudomonas aeruginosa; [12],0.25 µg/mL
same,MIC,Pseudomonas aeruginosa; [13],0.5 µg/mL
same,MIC,"[2]; K. pneumoniae 7000063, β-lactamase SHV-18, read-out: MIC",2 µg/mL
same,MIC,"[2]; K. pneumoniae KB390 Quale, TEM-30, TEM-1, KPC-2, SHV-12, read-out: MIC",2 µg/mL
same,MIC,"[2]; K. pneumoniae LC40, CTX-M-1 grp(15), TEM (164S), read-out: MIC",16 µg/mL
same,MIC,"[2]; K. pneumoniae LC56, CTX-M-1 grp(15), read-out: MIC",0.5 µg/mL
same,MIC,"[2]; K. pneumoniae LC102, SHV-1 (WT + 238S), read-out: MIC",1 µg/mL
same,MIC,"[2]; K. pneumoniae LC121, SHV-1 (WT + 238S + 240K), read-out: MIC",4 µg/mL
same,MIC,"[2]; K. pneumoniae Rush23, CTX-M-9 group, read-out: MIC",2 µg/mL
same,MIC,"[2]; K. pneumoniae VA-368, KPC-2, TEM-1, SHV-5, SHV-68",0.25 µg/mL
same,MIC,"[2]; K. pneumoniae VA-384, KPC-2, TEM-1, SHV-11, SHV-12, SHV-14",8 µg/mL
same,MIC,"[2]; K. pneumoniae VA-398, KPC-3, TEM-1, SHV-11, SHV-12, SHV-27",8 µg/mL
same,MIC,E. coli; [14],2 µg/mL
same,MIC,"E. coli; E. coli isolate AA-118, NDM",4 µg/mL
same,MIC,"E. coli; E. coli isolate AA-119, NDM",4 µg/mL
same,MIC,"E. coli; E. coli isolate AA-128, NDM",4 µg/mL
same,MIC,E. coli; [15],0.5 µg/mL
same,MIC,"E. coli; E. coli isolate AR-1, KPC-3",1 µg/mL
same,MIC,E. coli; [16],0.5 µg/mL
same,MIC,"E. coli; E. coli isolate AR-137, NDM-6",4 µg/mL
same,MIC,"E. coli; E. coli isolate AR-145, NDM",> 64 µg/mL
same,MIC,"E. coli; E. coli isolate J4244, MN",2 µg/mL
same,MIC,E. coli; [17],0.25 µg/mL
same,IC50,[3],2.5 ± 0.5 µM
